The text below walks through data of US11911411B2, “Sulfated glycosaminoglycan biomaterials as proteoglycan mimics” (Glycologix, LLC, priority 2020, dated 2024).

In the assay the test system is bladder permeability in LPS-treated URO-MCP-1 mice. Put plainly: CE-MRI (Gd-DTPA) assessment of bladder permeability, LPS-treated URO-MCP-1 transgenic mouse model of IC/BPS. The assay is classed as in vivo. The settings on record: 20 mg/ml, 100 μl. Here is the method: The URO-MCP-1 transgenic model was described previously. Cystitis with accompanying permeability were induced by intravesical administration of LPS at a sub-noxious dose of 1 jig of LPS in 100 μl of saline (Day 0, 9 a.m.). One control group was administered saline (100 μl) only (saline URO-MCP-1). Another control group consisting of wild-type (WT) mice was also administered saline only (saline-WT). Bladders were flushed 3 times with saline to remove any excess LPS 1 hour post-LPS injection. The next day (Day 1, 9 am) animals were treated with CS or SuperGAG (20 mg/ml in saline; 100 μl) or saline and the initial permeability was assessed 3 hours later (Day 1, 12:00 p.m.).
For MRI assessment of permeability, mice were anesthetized and treated as described above, but instead of euthanizing the mice, on Day 1, Day 3, and Day 5 the mice were anesthetized, instilled with the contrast agent Gd-DTPA and placed into the MRI instrument. MRI experiments were conducted on a 7 Tesla 30 cm-bore Bruker Biospec MRI system (Bruker Biospin Corporation, Woodlands, TX, U.S.A.). MRI scans were obtained at 1-, 3-, and 5-days following LPS instillation. For the bladder images, Gd-DTPA (0.034 mM Gd-DTPA diluted to 100 μl in saline), was administered via an intravesical catheter, for visualization of loss of permeability of the bladder urothelium. Bladder CE-MRI signal intensity changes were determined 7 minutes. post-contrast. For all MR images, a T1-weighted RARE (rapid acquisition with relaxation enhancement) MRI pulse sequence was used with the following parameters: repetition time (TR) of 1200 ms, echo time (TE) of 9 ms, a RARE factor of 4, 4 averages, an image slice thickness of 1 mm, a matrix of 256×256, a field-of-view (FOV) of 3.5×3.5 cm2, and with both motion and fat suppression. Animals were euthanized and the bladders placed in formalin for histopathology.

Turning to chondroitin sulfate [CS], the “percent change in MRI signal intensity versus LPS-treated URO-MCP-1 mice, day 1” value (day 1, *p< (figure not given)) was “significant decrease”. For the same substance, the “percent change in MRI signal intensity versus LPS-treated URO-MCP-1 mice, day 3” value (day 3, ***p<0.0001 for both) is on record as “significant decrease”. The “percent change in MRI signal intensity versus LPS-treated URO-MCP-1 mice, day 5” value (day 5, **p<0.01 for SuperGAG) was “not significantly different to control”.
